The term melting point denotes the temperature of the solid-liquid transition.

Data on 45 compounds can be found in patent US20050154230A1, “Urea derivatives” (Bayer HealthCare AG, priority 2001, published 2005).

Series [1] addresses T1, human VR1 (Homo sapiens, UniProt Q8NER1).
T1 construct: expressed in transfected cells
The series is described as follows: Capsaicin-induced Ca2+ influx in the human VR1-transfected CHO cell line (Assay 1). In kind it is cell-based. The protocol:
[Measurement of Capsaicin-Induced Ca^2+ Influx in the Human VR1-Transfected CHO Cell Line] (Assay 1)
(1) Establishment of the Human VR1-CHOluc9aeq Cell Line
The cloned hVR1 cDNA was constructed with pcDNA3 vector and transfected into a CHOluc9aeq cell line. The cell line contains aequorin and CRE-luciferase reporter genes as read-out signals. The transfectants were cloned by limiting dilution in selection medium (DMEM/F12 medium (Gibco BRL) supplemented with 10% FCS, 1.4 mM Sodium pyruvate, 20 mM HEPES, 0.15% Sodium bicarbonate, 100 U/ml penicillin, 100 μg/ml streptomycin, 2 mM glutamine, non-essential amino acids and 2 mg/ml G418). Ca^2+ influx was examined in the capsaicin-stimulated clones. […] The human VR1-CHOluc9aeq cells were maintained in the selection medium and passaged every 3-4 days at 1-2.5×10^5 cells/flask ([…]).
(2) Measurement of Ca^2+ Influx Using FDSS-3000
Human VR1-CHOluc9aeq cells were suspended in a culture medium which is the same as the selection medium except for G418 and seeded at a density of 1,000 cells per well into 384-well plates (black walled clear-base/Nalge Nunc International). […] After washing twice with assay buffer the cells were incubated with a test compound or vehicle for 20 min at 25° C. […] Integral R was calculated and compared with controls.

Where [2] appears, read: human VR1-CHOluc9aeq cells, 10 nM capsaicin, compound purity about 40 to 90%, read-out: Activity grade.
Where [3] appears, read: human VR1-CHOluc9aeq cells, 10 nM capsaicin, compound purity about 40 to 90%, read-out: hVR1 class.

Read-outs that look alike come from different tables or passages of the source.

T1 sequence (Q8NER1 whole entry): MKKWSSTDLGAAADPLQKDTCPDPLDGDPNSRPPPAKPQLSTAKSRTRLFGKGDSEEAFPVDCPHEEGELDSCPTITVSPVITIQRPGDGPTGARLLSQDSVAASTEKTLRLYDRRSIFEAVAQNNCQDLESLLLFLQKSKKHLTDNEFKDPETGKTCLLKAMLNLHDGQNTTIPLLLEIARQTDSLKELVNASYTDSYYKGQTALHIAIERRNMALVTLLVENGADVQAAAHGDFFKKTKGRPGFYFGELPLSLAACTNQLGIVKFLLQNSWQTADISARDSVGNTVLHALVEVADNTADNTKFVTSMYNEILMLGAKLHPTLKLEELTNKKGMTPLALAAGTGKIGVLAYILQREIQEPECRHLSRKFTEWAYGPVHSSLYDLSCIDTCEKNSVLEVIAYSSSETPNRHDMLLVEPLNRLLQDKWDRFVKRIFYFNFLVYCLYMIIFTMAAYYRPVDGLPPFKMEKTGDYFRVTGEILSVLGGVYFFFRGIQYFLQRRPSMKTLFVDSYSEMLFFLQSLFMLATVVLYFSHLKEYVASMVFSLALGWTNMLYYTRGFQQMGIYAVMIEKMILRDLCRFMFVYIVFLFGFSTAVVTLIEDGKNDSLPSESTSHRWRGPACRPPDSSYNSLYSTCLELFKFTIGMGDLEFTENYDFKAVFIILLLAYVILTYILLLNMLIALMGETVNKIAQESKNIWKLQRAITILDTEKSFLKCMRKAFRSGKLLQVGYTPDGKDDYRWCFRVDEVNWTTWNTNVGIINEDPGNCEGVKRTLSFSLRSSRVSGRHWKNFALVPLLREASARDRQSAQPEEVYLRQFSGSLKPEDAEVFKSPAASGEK

For `COc1cc(CNC(=O)Nc2ccc(C(C)C)cc2)ccc1O` [Example 1-1, N-(4-hydroxy-3-methoxybenzyl)-N′-(4-isopropylphenyl)urea], the melting point is 156 °C. Also, the IC50 in series [1] is less than 0.1 µM. In turn, `O=C(Nc1ccc(Cl)c(Cl)c1)Nc1ccccc1CCO` [Example 1-2, N-(3,4-dichlorophenyl)-N′-[2-(2-hydroxyethyl)phenyl]urea] registered a melting point of 188 to 190 °C. Further, the IC50 in series [1] (setting [2]) was less than 0.1 µM.

Take `COc1cc(CNC(=O)Nc2cccc(-c3ccc(Cl)cc3)c2)ccc1O` [Example 2-1, N-(4′-chloro-1,1′-biphenyl-3-yl)-N′-(4-hydroxy-3 methoxybenzyl)urea]: the melting point worked out at 153.4 °C. In addition, in series [1] (setting [2]), the IC50 was less than 0.1 µM. Compound `O=C(Nc1cccc(-c2ccccc2)c1)Nc1ccccc1CCO` [Example 3-1, N-(1,1′-biphenyl-3-yl)-N′-[2-(2-hydroxyethyl)phenyl]urea] returned a melting point of 196 to 198 °C. The IC50 in series [1] (setting [2]) is less than 0.1 µM. With `COc1cccc(NC(=O)NCc2ccc(O)c(OC)c2)c1` [Example 34], the melting point amounted to 133 °C. In addition, in series [1] (setting [3]), the IC50 lay in the range of 0.5 to 1 µM. `COc1ccc2c(c1)C(NC(=O)Nc1ccc(F)cc1)CCC2` (stereo not drawn) [Example 53] registered a melting point of 177.5 °C. Besides, in series [1] (setting [3]), the IC50 lay within 0.5 to 1 µM. `O=C(Nc1ccc(Cl)c(C(F)(F)F)c1)NC1CCCc2ccc(O)cc21` (stereo not drawn) [Example 54]: the melting point worked out at 201 °C.

`COc1cc(CNC(=O)Nc2ccc(Cl)c(C(F)(F)F)c2)ccc1O` [Example 55] showed a melting point of 193 °C. For the same compound, the IC50 in series [1] (setting [3]) is less than 0.1 µM. `COc1cc(CNC(=O)Nc2ccc(F)cc2)ccc1O` [Example 56] returned a melting point of 211 to 212 °C. In series [1] (setting [3]), the IC50 lay within 0.5 to 1 µM. In the case of `COc1cc(CNC(=O)Nc2ccccc2OC)ccc1O` [Example 57], the melting point amounted to 144 °C. Besides, the IC50 in series [1] (setting [3]) fell in the range of 0.5 to 1 µM. `COc1cc(CNC(=O)Nc2ccccc2[N+](=O)[O-])ccc1O` [Example 58] showed a melting point of 180 °C. In addition, in series [1] (setting [3]), the IC50 was in the range of 0.5 to 1 µM.

As for `COc1cc(CNC(=O)Nc2c(C)cccc2C)ccc1O` [Example 60], the melting point came out at 211 °C. In addition, the IC50 in series [1] (setting [3]) lay in the range of 0.5 to 1 µM. On the same counts, the results for `COc1cc(CNC(=O)Nc2ccc(C)cc2C)ccc1O` [Example 62] are 184 °C and 0.5 to 1 µM. `COc1cc(CNC(=O)Nc2ccc(Br)cc2)ccc1O` [Example 63]: the melting point is 203 °C. Also, the IC50 in series [1] (setting [3]) lay within 0.1 to 0.5 µM.

On to `COc1cc(CNC(=O)Nc2ccc(Cl)c([N+](=O)[O-])c2)ccc1O` [Example 64], for which the melting point came out at 180 °C. In addition, in series [1] (setting [3]), the IC50 was 0.1 to 0.5 µM. For `COc1cc(CNC(=O)Nc2cc([N+](=O)[O-])ccc2F)ccc1O` [Example 65], the melting point stood at 208 °C. The IC50 in series [1] (setting [3]) fell in the range of 0.5 to 1 µM. Compound `COc1cc(CNC(=O)Nc2ccc(F)c([N+](=O)[O-])c2)ccc1O` [Example 66] had a melting point of 184 °C. The IC50 in series [1] lay within 0.1 to 0.5 µM.

In turn, `COc1cc(CNC(=O)Nc2cccc3ccccc23)ccc1O` [Example 70] gave a melting point of 149 °C. In series [1], this compound returned an IC50 of less than 0.1 µM. Compound `COc1cc(CNC(=O)Nc2ccc(Cl)c(Cl)c2)ccc1O` [Example 71] had a melting point of 207 °C. Also, in series [1] (setting [3]), the IC50 was less than 0.1 µM. `COc1cc(CNC(=O)Nc2c(C)cc(C)cc2C)ccc1O` [Example 72] yielded a melting point of 217 °C. In addition, the IC50 in series [1] (setting [3]) lay in the range of 0.5 to 1 µM. Compound `COc1cc2c(cc1O)CN(C(=O)Nc1ccc(Cl)c(C(F)(F)F)c1)CC2` [Example 78] gave a melting point of 130 °C.

In turn, `COc1cc(CNC(=O)Nc2cccc(C)c2)ccc1O` [Example 82] had a melting point of 181 °C. This compound also yielded an IC50 in series [1] of 0.1 to 0.5 µM.

Compound `COc1cc(CNC(=O)Nc2ccc(Cl)cc2)ccc1O` [Example 83] displayed a melting point of 210 °C. Also, the IC50 in series [1] (setting [3]) is less than 0.1 µM. In turn, `Nc1ccc2c(c1)C(NC(=O)Nc1ccc(Cl)c(C(F)(F)F)c1)CCC2` (stereo not drawn) [Example 96] displayed a melting point of 178 °C. In addition, in series [1] (setting [3]), the IC50 was 0.5 to 1 µM. In the case of `O=C(Nc1ccc(Cl)c(C(F)(F)F)c1)Nc1ccccc1CCO` [Example 98], the melting point lay within 175 to 177 °C. Moreover, the IC50 in series [1] (setting [3]) is less than 0.1 µM. In the case of `O=C(Nc1ccc(Oc2ccccc2)cc1)Nc1ccccc1CCO` [Example 99], the melting point is 133 to 135 °C. In series [1] (setting [3]), the IC50 is less than 0.1 µM.

`CCOC(=O)c1cccc(NC(=O)Nc2ccccc2CCO)c1` [Example 100] had a melting point of 152 to 153 °C. Further, the IC50 in series [1] (setting [3]) was 0.1 to 0.5 µM. The compound `CC(C)c1ccc(NC(=O)Nc2ccccc2CCO)cc1` [Example 101] showed a melting point of 149 to 150 °C. Moreover, in series [1] (setting [3]), the IC50 lay within 0.1 to 0.5 µM.

Turning to `O=C(Nc1ccc2ccccc2c1)Nc1ccccc1CCO` [Example 102], the melting point was 195 to 197 °C. The IC50 in series [1] (setting [3]) is 0.1 to 0.5 µM.

The compound `O=C(NCc1ccc(Br)cc1)Nc1ccccc1CCO` [Example 103] came in with a melting point of 198 to 200 °C. Further, the IC50 in series [1] (setting [3]) lay in the range of 0.1 to 0.5 µM. In the same order, the values of `O=C(Nc1ccccc1Cl)Nc1ccccc1CCO` [Example 104] are 173 to 175 °C and 0.5 to 1 µM. On to `O=C(Nc1cccc(Cl)c1)Nc1ccccc1CCO` [Example 105], for which the melting point is 188 to 190 °C. For the same compound, in series [1] (setting [3]), the IC50 lay in the range of 0.5 to 1 µM.

`O=C(Nc1ccc(Cl)cc1)Nc1ccccc1CCO` [Example 106] showed a melting point of 185 to 187 °C. In addition, in series [1] (setting [3]), the IC50 is 0.5 to 1 µM. On the same counts, the results for `O=C(Nc1cccc(C(F)(F)F)c1)Nc1ccccc1CCO` [Example 107] are 173 to 175 °C and 0.1 to 0.5 µM. `O=C(Nc1ccc(C(F)(F)F)cc1)Nc1ccccc1CCO` [Example 108]: the melting point lay in the range of 178 to 180 °C. The IC50 in series [1] (setting [3]) is 0.1 to 0.5 µM. In the case of `O=C(Nc1cc(Cl)cc(Cl)c1)Nc1ccccc1CCO` [Example 109], the melting point was in the range of 214 to 216 °C. Further, in series [1] (setting [3]), the IC50 was in the range of 0.1 to 0.5 µM. In the same order, the values of `O=C(Nc1ccc([N+](=O)[O-])cc1)Nc1ccccc1CCO` [Example 110] are 178 °C and 0.5 to 1 µM.

As for `O=C(Nc1ccc(F)c([N+](=O)[O-])c1)Nc1ccccc1CCO` [Example 111], the melting point is 185 °C. In addition, in series [1] (setting [3]), the IC50 is 0.5 to 1 µM. In the case of `O=C(Nc1ccccc1CCO)Nc1cccc2cc(O)ccc12` [Example 167], the IC50 in series [1] (setting [3]) lay in the range of 0.5 to 1 µM. Take `CN(C)c1ccc(-c2cccc(NC(=O)Nc3ccccc3CCO)c2)cc1` [Example 170]: in series [1] (setting [3]), the IC50 was less than 0.1 µM. Regarding `CC(C)(C)c1ccc(C(C)(C)C)c(NC(=O)Nc2ccccc2CCO)c1` [Example 177], the IC50 in series [1] (setting [3]) was 0.5 to 1 µM.

Take `O=C(Nc1ccc(-c2ccc([N+](=O)[O-])cc2)cc1)Nc1ccccc1CCO` [Example 178]: in series [1] (setting [3]), the IC50 is 0.1 to 0.5 µM. On the same count and under the same terms, under `O=C(Nc1cccc(-c2ccc(F)cc2)c1)Nc1ccccc1CCO` [Example 193] stands less than 0.1 µM; under `O=C(Nc1cccc(-c2ccc(Cl)cc2)c1)Nc1ccccc1CCO` [Example 194], less than 0.1 µM; under `COc1cccc(NC(=O)Nc2cccc(-c3ccc(Cl)cc3)c2)c1CCO` [Example 251], less than 0.1 µM.
